The results in this text go back to US9452986B2, “6-heteroaryloxy- or 6-aryloxy-quinoline-2-carboxamides and method of use” (AbbVie Inc., priority 2014, dated 2016).

pIC50: −log10 of the molar value. Read-outs that look alike come from different tables or passages of the source.

Usually pIC50 stands for the IC50 on a negative log10 scale, so that one unit is a factor of ten.

The subject of one assay is osteoarthritic rats. Description: Osteoarthritic (OA) pain induced by sodium monoiodoacetate (MIA), hind limb grip force. In kind it is in vivo, rat. To be noted: Rattus norvegicus, 480 h, rat, 20 days following MIA injection, hind limb grip force, read-out: OA MPE; for inhibition in vivo at 30 mg/kg: OA dose 30 mg/kg; for inhibition in vivo at 10 mg/kg: OA dose 10 mg/kg. The procedure:
Osteoarthritic (OA) Pain Induced by Sodium Monoiodoacetate (MIA)
Pain behavior was assessed by measurement of hind limb grip force (GF) in adult osteoarthritic rats. Male Sprague Dawley rats, obtained from Charles River Laboratories, (Wilmington, Mass.), weighing 150-175 g, were injected in the unilateral knee join with a single intra-articular injection of sodium monoiodoacetate (MIA, 3 mg/rat). All rats were tested at 20 days following MIA injection. A behavioral measure of activity-induced pain was carried out. Measurements of the peak hind limb grip force were conducted by recording the maximum compressive force (CFmax), in grams of force, exerted on a hind limb strain gauge setup, in a commercially available grip force measurement system (Columbus Instruments, Columbus, Ohio).
During testing, each rat was gently restrained by grasping it around its rib cage and then allowed to grasp the wire mesh frame attached to the strain gauge. The experimenter then moved the animal in a rostral-to-caudal direction until the grip was broken. Each rat was sequentially tested twice at an approximately 2-3 minute interval to obtain a raw mean grip force (CFmax). This raw mean grip force data was in turn converted to a maximum hindlimb cumulative compressive force (CFmax), as the grams of force/kg of body weight, for each animal.
For evaluating the compound effects, the hind limb grip force was conducted 20 days following the intra-articular injection of MIA. A group of age-matched naïve (not injected with MIA) animals was added as a comparator to the drug-dosed groups. The vehicle control response for each group of MIA-treated animals was defined as the 0% response (0% effect), whereas the naïve control group was defined as the normal response and as 100% effect. The % effect for each dose group was expressed as % return of response to normalcy, compared to the naïve group. A percent maximal possible effect (% MPE) of testing compound was calculated according to the formula: (Treatment CFmax−Vehicle CFmax)/Vehicle CFmax]×100). Higher % effect numbers indicate increased relief from the pain in the model, with 100% indicating a return to the level of response seen in normal (non-osteoarthritic) animals. All experiments evaluating drug effects in this model were conducted in a randomized blinded fashion.
The animals were housed in Association for Assessment and Accreditation of Laboratory Animal Care (AAALAC) approved facilities at AbbVie Inc. in a temperature-regulated environment under a controlled 12-hour light-dark cycle, with lights on at 6:00 a.m. Food and water were available ad libitum at all times except during testing. All testing was done following procedures outlined in protocols approved by AbbVie Inc.'s Institutional Animal Care and Use Committee.

The next assay concerns the target recombinant human Nav1.7 (Homo sapiens (Human), UniProt Q15858). Description: FRET-based membrane potential assay, recombinant human sodium channel Nav1.7. In kind it is cell-based. The essentials: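 Channel activation used veratridine at its EC80, set by a dilution curve each experiment, together with Leiurus scorpion venom, added 3 min after compound. Membrane-potential ratio signals from FLIPR Tetra in HEPES-buffered HBSS were fitted to a four-parameter Hill equation for percent inhibition and IC50.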

A further assay deals with recombinant human Nav1.8 (Homo sapiens (Human), UniProt Q9Y5Y9). Description: FRET-based membrane potential assay, recombinant human sodium channel Nav1.8. In kind it is cell-based.
Chain of recombinant human Nav1.8 (Q9Y5Y9 whole entry): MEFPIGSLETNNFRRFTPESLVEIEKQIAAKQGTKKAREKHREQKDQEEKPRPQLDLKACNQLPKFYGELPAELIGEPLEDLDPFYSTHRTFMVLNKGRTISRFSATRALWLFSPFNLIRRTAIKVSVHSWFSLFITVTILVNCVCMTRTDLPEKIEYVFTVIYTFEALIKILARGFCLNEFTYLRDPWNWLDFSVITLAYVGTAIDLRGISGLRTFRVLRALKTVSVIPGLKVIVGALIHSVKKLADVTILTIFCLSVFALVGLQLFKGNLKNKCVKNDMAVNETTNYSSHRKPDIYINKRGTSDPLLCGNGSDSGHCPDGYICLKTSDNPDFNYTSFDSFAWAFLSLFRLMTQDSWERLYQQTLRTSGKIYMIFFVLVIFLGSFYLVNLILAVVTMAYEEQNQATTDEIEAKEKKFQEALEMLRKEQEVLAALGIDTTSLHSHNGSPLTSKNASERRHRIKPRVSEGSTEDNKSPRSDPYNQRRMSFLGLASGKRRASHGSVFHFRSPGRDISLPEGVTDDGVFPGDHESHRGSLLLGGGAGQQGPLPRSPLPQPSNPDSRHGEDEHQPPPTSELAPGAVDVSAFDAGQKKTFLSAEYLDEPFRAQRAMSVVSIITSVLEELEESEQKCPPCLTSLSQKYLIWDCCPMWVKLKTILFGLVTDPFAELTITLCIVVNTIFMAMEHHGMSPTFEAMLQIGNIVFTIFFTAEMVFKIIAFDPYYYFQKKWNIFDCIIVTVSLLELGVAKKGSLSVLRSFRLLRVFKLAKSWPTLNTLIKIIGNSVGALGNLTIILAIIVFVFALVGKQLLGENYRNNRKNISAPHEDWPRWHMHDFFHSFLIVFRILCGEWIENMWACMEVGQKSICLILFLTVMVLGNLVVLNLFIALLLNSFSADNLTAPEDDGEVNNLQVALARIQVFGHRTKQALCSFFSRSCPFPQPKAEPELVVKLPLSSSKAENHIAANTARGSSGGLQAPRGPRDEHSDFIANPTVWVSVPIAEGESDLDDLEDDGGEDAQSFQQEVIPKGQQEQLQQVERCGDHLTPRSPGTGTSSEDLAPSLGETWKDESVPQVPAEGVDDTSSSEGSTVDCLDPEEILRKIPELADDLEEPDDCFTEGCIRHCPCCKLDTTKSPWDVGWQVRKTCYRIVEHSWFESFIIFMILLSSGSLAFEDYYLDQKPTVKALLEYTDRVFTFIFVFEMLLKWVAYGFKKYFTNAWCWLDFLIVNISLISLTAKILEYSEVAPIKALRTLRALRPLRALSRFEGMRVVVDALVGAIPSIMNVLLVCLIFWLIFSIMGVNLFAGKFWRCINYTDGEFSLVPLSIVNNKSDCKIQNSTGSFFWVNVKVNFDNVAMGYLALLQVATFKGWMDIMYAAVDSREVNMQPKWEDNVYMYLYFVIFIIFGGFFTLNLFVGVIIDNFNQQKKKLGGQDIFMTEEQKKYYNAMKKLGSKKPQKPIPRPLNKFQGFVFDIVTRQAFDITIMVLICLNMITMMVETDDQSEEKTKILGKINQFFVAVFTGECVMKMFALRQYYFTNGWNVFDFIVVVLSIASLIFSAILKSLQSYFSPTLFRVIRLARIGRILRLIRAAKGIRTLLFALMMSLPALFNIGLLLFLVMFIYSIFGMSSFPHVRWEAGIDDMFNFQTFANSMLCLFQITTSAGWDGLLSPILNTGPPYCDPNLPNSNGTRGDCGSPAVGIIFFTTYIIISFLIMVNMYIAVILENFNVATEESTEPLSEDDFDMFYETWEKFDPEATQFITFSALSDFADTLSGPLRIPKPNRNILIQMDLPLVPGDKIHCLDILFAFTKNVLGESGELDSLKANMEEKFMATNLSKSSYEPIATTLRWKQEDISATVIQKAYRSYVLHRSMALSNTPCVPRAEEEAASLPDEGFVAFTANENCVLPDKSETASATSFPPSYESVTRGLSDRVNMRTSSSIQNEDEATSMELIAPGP
Setting [1] is: HEK293 cells stably expressing recombinant human Nav1.7, veratridine + scorpion venom depolarization, read-out: FRET-Membrane Potential Nav1.7 IC50.
Setting [2] is: HEK293 cells stably expressing recombinant human Nav1.8, veratridine + scorpion venom depolarization.
Setting [3] is: read-out: FRET-Membrane Potential Nav1.7 IC50.

Chain of recombinant human Nav1.7 (Q15858 whole entry): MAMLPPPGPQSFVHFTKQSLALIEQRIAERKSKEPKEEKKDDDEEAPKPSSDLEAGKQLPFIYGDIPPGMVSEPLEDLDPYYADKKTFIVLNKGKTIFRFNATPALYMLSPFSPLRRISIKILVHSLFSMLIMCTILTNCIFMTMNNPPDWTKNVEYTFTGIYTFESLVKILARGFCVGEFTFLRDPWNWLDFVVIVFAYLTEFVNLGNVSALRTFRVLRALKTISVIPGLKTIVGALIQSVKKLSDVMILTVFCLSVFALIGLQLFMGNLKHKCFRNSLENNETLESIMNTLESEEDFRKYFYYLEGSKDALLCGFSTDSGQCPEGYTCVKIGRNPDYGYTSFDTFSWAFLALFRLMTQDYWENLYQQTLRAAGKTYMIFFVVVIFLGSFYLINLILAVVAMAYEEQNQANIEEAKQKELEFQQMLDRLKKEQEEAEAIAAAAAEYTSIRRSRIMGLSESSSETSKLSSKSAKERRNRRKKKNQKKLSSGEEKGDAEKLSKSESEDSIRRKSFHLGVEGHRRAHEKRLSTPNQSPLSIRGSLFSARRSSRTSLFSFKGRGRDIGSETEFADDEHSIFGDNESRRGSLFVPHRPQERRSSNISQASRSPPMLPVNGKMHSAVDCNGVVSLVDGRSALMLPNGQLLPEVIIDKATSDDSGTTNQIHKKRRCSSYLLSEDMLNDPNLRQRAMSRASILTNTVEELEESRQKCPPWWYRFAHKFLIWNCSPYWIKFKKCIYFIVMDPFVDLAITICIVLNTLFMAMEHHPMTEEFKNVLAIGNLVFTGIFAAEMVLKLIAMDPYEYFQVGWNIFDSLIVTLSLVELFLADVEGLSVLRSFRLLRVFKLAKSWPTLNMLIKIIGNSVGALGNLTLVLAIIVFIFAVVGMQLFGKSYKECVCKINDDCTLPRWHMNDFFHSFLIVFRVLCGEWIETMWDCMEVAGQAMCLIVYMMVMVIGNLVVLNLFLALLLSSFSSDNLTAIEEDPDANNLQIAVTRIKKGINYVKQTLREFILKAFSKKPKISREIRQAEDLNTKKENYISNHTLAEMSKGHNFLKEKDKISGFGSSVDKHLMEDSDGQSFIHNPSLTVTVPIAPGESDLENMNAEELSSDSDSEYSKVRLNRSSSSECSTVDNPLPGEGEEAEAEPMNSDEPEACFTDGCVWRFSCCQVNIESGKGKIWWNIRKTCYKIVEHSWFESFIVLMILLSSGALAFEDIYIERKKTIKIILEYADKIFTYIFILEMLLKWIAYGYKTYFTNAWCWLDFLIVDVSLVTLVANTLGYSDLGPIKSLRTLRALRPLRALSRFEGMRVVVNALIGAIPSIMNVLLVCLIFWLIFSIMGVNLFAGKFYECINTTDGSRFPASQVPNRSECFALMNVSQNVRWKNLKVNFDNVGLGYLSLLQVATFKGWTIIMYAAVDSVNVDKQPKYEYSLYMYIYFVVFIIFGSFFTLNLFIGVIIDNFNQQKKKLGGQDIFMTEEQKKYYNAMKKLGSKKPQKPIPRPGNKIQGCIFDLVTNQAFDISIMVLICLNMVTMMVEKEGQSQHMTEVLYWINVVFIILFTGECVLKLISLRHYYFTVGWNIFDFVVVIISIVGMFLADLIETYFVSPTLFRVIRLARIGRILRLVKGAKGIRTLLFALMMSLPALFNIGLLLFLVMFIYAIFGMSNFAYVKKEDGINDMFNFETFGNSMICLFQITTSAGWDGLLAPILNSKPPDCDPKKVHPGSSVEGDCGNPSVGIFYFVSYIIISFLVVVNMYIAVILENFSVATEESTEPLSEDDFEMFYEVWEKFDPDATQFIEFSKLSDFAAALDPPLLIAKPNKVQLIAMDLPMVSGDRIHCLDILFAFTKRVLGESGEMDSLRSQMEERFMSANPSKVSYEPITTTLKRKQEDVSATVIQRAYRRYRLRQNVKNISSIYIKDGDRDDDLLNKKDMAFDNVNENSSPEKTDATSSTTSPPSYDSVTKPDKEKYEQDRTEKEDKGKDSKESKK

As to `O=C(NC1CCC(F)(F)CC1)c1ccc2cc(Oc3ccc(C(F)(F)F)cn3)ccc2n1` [Example 23, N-(4,4-difluorocyclohexyl)-6-{[5-(trifluoromethyl)pyridin-2-yl]oxy}quinoline-2-carboxamide], the inhibition in vivo at 30 mg/kg in the assay with osteoarthritic rats came to 83%. Moreover, the results for the pIC50 at recombinant human Nav1.7 (setting [1]) and on recombinant human Nav1.8 (setting [2]) were 5.84 and less than 4.70, respectively.

As to `O=C(c1ccc2cc(Oc3ccc(C(F)(F)F)cn3)ccc2n1)N1CCNCC1C(F)F` (stereo not drawn) [Example 25, [2-(difluoromethyl)piperazin-1-yl](6-{[5-(trifluoromethyl)pyridin-2-yl]oxy}quinolin-2-yl)methanone], the inhibition in vivo at 30 mg/kg in the assay with osteoarthritic rats was 102%. For the same compound, the pIC50 is 5.76 at recombinant human Nav1.7 (setting [3]) and 5.42 at recombinant human Nav1.8 (setting [2]).

Regarding `O=C(NCC(=O)N1CCCC1)c1ccc2cc(Oc3ccc(C(F)(F)F)cn3)ccc2n1` [Example 44, N-[2-oxo-2-(pyrrolidin-1-yl)ethyl]-6-{[5-(trifluoromethyl)pyridin-2-yl]oxy}quinoline-2-carboxamide], the inhibition in vivo at 10 mg/kg in the assay with osteoarthritic rats was found to be 42%. For the same compound, at recombinant human Nav1.8, the pIC50 was 6.03.

As for `CS(=O)(=O)CCCNC(=O)c1ccc2cc(Oc3ccc(C(F)(F)F)cn3)ccc2n1` [Example 65, N-[3-(methylsulfonyl)propyl]-6-{[5-(trifluoromethyl)pyridin-2-yl]oxy}quinoline-2-carboxamide], the inhibition in vivo at 30 mg/kg in the assay with osteoarthritic rats worked out at 63%. Also, the pIC50 on recombinant human Nav1.7 (setting [3]) is 5.65; at recombinant human Nav1.8 (setting [2]) it was 5.37.

`COC[C@H]1CN(C(=O)c2ccc3cc(Oc4ccc(C(F)F)cn4)ccc3n2)CCN1` [Example 71, (6-{[5-(difluoromethyl)pyridin-2-yl]oxy}quinolin-2-yl) [(3R)-3-(methoxymethyl)piperazin-1-yl]methanone]: the inhibition in vivo at 10 mg/kg in the assay with osteoarthritic rats amounted to 33%. Besides, the pIC50 is 5.74 on recombinant human Nav1.7 (setting [1]) and 5.79 on recombinant human Nav1.8 (setting [2]).

On to `C[C@@H]1CN(C(=O)c2ccc3cc(Oc4ccc(C(F)(F)F)nc4)ccc3n2)CCN1` [Example 62, [(3R)-3-methylpiperazin-1-yl](6-{[6-(trifluoromethyl)pyridin-3-yl]oxy}quinolin-2-yl)methanone], for which the inhibition in vivo at 10 mg/kg in the assay on osteoarthritic rats was -1%. Besides, the pIC50 on recombinant human Nav1.7 (setting [1]) is 6.30; on recombinant human Nav1.8 (setting [2]), 6.92.

Consider `O=C(NC1CC(F)(F)C1)c1ccc2cc(Oc3ccc(C(F)F)cn3)ccc2n1` [Example 580, N-(3,3-difluorocyclobutyl)-6-{[5-(difluoromethyl)pyridin-2-yl]oxy}quinoline-2-carboxamide], for which the negative logarithm of the IC50 (pIC50) on recombinant human Nav1.7 (setting [3]) was 5.81; at recombinant human Nav1.8 (setting [2]), 5.94.

For the compound `O=C(NCC(F)(F)F)c1ccc2cc(Oc3ccc(C(F)F)cn3)ccc2n1` [Example 436, 6-{[5-(difluoromethyl)pyridin-2-yl]oxy}-N-(2,2,2-trifluoroethyl)quinoline-2-carboxamide], in the assay with osteoarthritic rats, the inhibition in vivo at 30 mg/kg was 51%. In addition, the negative logarithm of the IC50 (pIC50) at recombinant human Nav1.7 (setting [1]) is 5.76; at recombinant human Nav1.8 (setting [2]), 5.47.

Take `O=C(c1ccc2cc(Oc3ccc(C(F)(F)F)cn3)ccc2n1)N1CCNCC(F)(F)C1` [Example 417, (6,6-difluoro-1,4-diazepan-1-yl)(6-{[5-(trifluoromethyl)pyridin-2-yl]oxy}quinolin-2-yl)methanone]: the pIC50 on recombinant human Nav1.7 (setting [3]) was 4.94; on recombinant human Nav1.8 (setting [2]), 5.56.

In the case of `O=C(c1ccc2cc(Oc3ccc(C(F)(F)F)cn3)ccc2n1)N1CCNCC1C(F)F` (single isomer, unassigned) [Example 72, [(2S*)-2-(difluoromethyl)piperazin-1-yl](6-{[5-(trifluoromethyl)pyridin-2-yl]oxy}quinolin-2-yl)methanone], the inhibition in vivo at 30 mg/kg in the assay on osteoarthritic rats is 11%. For the same compound, the values for the pIC50 on recombinant human Nav1.7 (FRET-Membrane Potential Nav1.7 IC50) and on recombinant human Nav1.8 (setting [2]) were 5.56 and 5.42, respectively.

As to `CCN1CC(NC(=O)c2ccc3cc(Oc4ccc(C(F)(F)F)cn4)ccc3n2)CC1=O` (stereo not drawn) [Example 45, N-(1-ethyl-5-oxopyrrolidin-3-yl)-6-{[5-(trifluoromethyl)pyridin-2-yl]oxy}quinoline-2-carboxamide], the inhibition in vivo at 30 mg/kg with osteoarthritic rats was determined as 17%. For the same compound, the negative logarithm of the IC50 (pIC50) at recombinant human Nav1.7 (setting [1]) is 6.49; on recombinant human Nav1.8 (setting [2]) it was 6.33.

In the case of `O=C(c1ccc2cc(Oc3ccc(C(F)(F)F)cn3)ccc2n1)N1CCNC(C(F)(F)F)C1` (stereo not drawn) [Example 20, [3-(trifluoromethyl)piperazin-1-yl](6-{[5-(trifluoromethyl)pyridin-2-yl]oxy}quinolin-2-yl)methanone], the inhibition in vivo at 10 mg/kg with osteoarthritic rats amounted to 24%. Further, the pIC50 was 4.98 on recombinant human Nav1.7 (setting [1]) and 5.49 on recombinant human Nav1.8 (setting [2]).

On to `C[C@@H]1CN(C(=O)c2ccc3cc(Oc4ccc(C(F)F)cn4)ccc3n2)CCN1` [Example 68, (6-{[5-(difluoromethyl)pyridin-2-yl]oxy}quinolin-2-yl) [(3R)-3-methylpiperazin-1-yl]methanone], for which, in the assay with osteoarthritic rats, the inhibition in vivo at 10 mg/kg amounted to 52%. The values for the pIC50 at recombinant human Nav1.7 (setting [1]) and at recombinant human Nav1.8 (setting [2]) were 5.92 and 5.72, respectively.

As to `CN1CCC(N(C)C(=O)c2ccc3cc(Oc4ccc(C(F)(F)F)cn4)ccc3n2)CC1=O` (stereo not drawn) [Example 529, N-methyl-N-(1-methyl-2-oxopiperidin-4-yl)-6-{[5-(trifluoromethyl)pyridin-2-yl]oxy}quinoline-2-carboxamide], the results for the negative-log IC50 (pIC50) at recombinant human Nav1.7 (setting [3]) and on recombinant human Nav1.8 (setting [2]) were 4.99 and less than 4.70, respectively.

Turning to `O=C1C[C@@H](NC(=O)c2ccc3cc(Oc4ccc(C(F)(F)F)cn4)ccc3n2)CCN1` [Example 512, N-[(4S)-2-oxopiperidin-4-yl]-6-{[5-(trifluoromethyl)pyridin-2-yl]oxy}quinoline-2-carboxamide], the pIC50 on recombinant human Nav1.7 (setting [3]) is 6.01; on recombinant human Nav1.8 (setting [2]) it was 6.67.

For the compound `O=C(c1ccc2cc(Oc3ccc(C(F)(F)F)cn3)ccc2n1)N1CCNC[C@@H]1C(F)F` [Example 603, [(2R)-2-(difluoromethyl)piperazin-1-yl](6-{[5-(trifluoromethyl)pyridin-2-yl]oxy}quinolin-2-yl)methanone], the pIC50 was 5.71 on recombinant human Nav1.7 (setting [3]) and 5.44 on recombinant human Nav1.8 (setting [2]).

With `CN(CC(F)F)C(=O)c1ccc2cc(Oc3ccc(C(F)(F)F)cn3)ccc2n1` [Example 622, N-(2,2-difluoroethyl)-N-methyl-6-{[5-(trifluoromethyl)pyridin-2-yl]oxy}quinoline-2-carboxamide], the results for the pIC50 at recombinant human Nav1.7 (setting [3]) and on recombinant human Nav1.8 (setting [2]) were 5.27 and 5.64, respectively.

For `O=C1C[C@H](NC(=O)c2ccc3cc(Oc4ccc(C(F)(F)F)cn4)ccc3n2)CCN1` [Example 521, N-[(4R)-2-oxopiperidin-4-yl]-6-{[5-(trifluoromethyl)pyridin-2-yl]oxy}quinoline-2-carboxamide], the results for the pIC50 on recombinant human Nav1.7 (setting [3]) and on recombinant human Nav1.8 (setting [2]) were 5.58 and 5.96, respectively.

For the compound `O=C(c1ccc2cc(Oc3ccc(C(F)(F)F)cn3)ccc2n1)N1CC2(CCOCC2)C1` [Example 623, 7-oxa-2-azaspiro[3.5]non-2-yl(6-{[5-(trifluoromethyl)pyridin-2-yl]oxy}quinolin-2-yl)methanone], the pIC50 on recombinant human Nav1.7 (setting [1]) is 5.31; on recombinant human Nav1.8 (setting [2]) it was 5.43.

For `O=C(c1ccc2cc(Oc3ccc(C(F)(F)F)cn3)ccc2n1)N1CCNC2(CC2)C1` [Example 39, 4,7-diazaspiro[2.5]oct-7-yl(6-{[5-(trifluoromethyl)pyridin-2-yl]oxy}quinolin-2-yl)methanone], the inhibition in vivo at 30 mg/kg in the assay with osteoarthritic rats worked out at 43%. In addition, at recombinant human Nav1.7 (setting [1]), the pIC50 is 6.13.

On to `O=C(c1ccc2cc(Oc3ccc(C(F)(F)F)cn3)ccc2n1)N1CC(NCC(F)(F)F)C1` [Example 621, {3-[(2,2,2-trifluoroethyl)amino]azetidin-1-yl}(6-{[5-(trifluoromethyl)pyridin-2-yl]oxy}quinolin-2-yl)methanone], for which the pIC50 on recombinant human Nav1.7 (setting [1]) was 5.57; on recombinant human Nav1.8 (setting [2]) it was 5.78.

For the compound `O=C(c1ccc2cc(Oc3ccc(C(F)(F)F)cn3)ccc2n1)N1C[C@@H]2C[C@H]1CN2` [Example 3, (1S,4S)-2,5-diazabicyclo[2.2.1]hept-2-yl(6-{[5-(trifluoromethyl)pyridin-2-yl]oxy}quinolin-2-yl)methanone], the inhibition in vivo at 30 mg/kg in the assay with osteoarthritic rats is 46%. Further, at recombinant human Nav1.7 (setting [1]), the negative-log IC50 (pIC50) is 5.84.
